Measurements taken from patent US12473250B2, “Molecular design of new antibiotics and antibiotic adjuvants against MCR strains” (priority 2019, dated 2025).

What was measured:
[1] = system: colistin resistant MCR (−) E. Cloacae strain 7023456439; experiment: Synergy study: colistin MIC in the presence of compound; assay type: cell-based; settings: strain 7023456439 E. Cloacae
Summary of the method: (§1)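 CLSI broth microdilution with colistin and LC compound added in equal amounts, 2-fold serial dilution, alone or combined at fixed synergy concentration. MIC taken as lowest concentration with no visible growth after 24 hours of incubation.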

[2] = system: colistin resistant MCR (+) E. Coli strains; experiment: as above; assay type: cell-based
Summary of the method: as §1

## CCN(CC)CCCCOc1ccc(/C=C/C(=O)c2ccc(OCCCCN(CC)CC)c(CC=C(C)C)c2O)cc1 [LC100]
[1]; compound at 2 μg
  Colistin MIC in the presence of the compound: <0.0975 µg/mL
[1]; compound at 5 μg (Table 2a: 5 ug/ml)
  Colistin MIC in the presence of the compound: 0.195 µg/mL
[1]; compound at 10 μg (Table 2a: 10 ug/ml)
  Colistin MIC in the presence of the compound: <0.098 µg/mL
[1]; compound at 10 μg (Table 2a: 10 ug/ml), listed as LC 100
  Colistin MIC in the presence of the compound: <0.0975 µg/mL
[2]; LC100 greater than 5 μg/ml, as low as
  Colistin MIC in the presence of LC100: 0.0975 µg/mL
[2]; against mcr-1 bacteria
  concentration at which the compound shows synergy with colistin: 2 µg/mL
[2]; against mcr-1 bacteria, in words
  synergy with colistin: excellent synergy
[2]; strain 6075066346, MCR(+), compound at 2 μg
  Colistin MIC in the presence of the compound: 1.56 µg/mL
[2]; strain 6075066346, MCR(+), compound at 3 μg
  Colistin MIC in the presence of the compound: 0.78 µg/mL
[2]; strain 6075066346, MCR(+), compound at 5 μg (Table 2a: 5 ug/ml)
  Colistin MIC in the presence of the compound: 0.195 µg/mL
[2]; strain 6075066346, MCR(+), compound at 10 μg (Table 2a: 10 ug/ml)
  Colistin MIC in the presence of the compound: <0.098 µg/mL
[2]; strain 6075066346, MCR(+), compound at 10 μg (Table 2a: 10 ug/ml), listed as LC 100
  Colistin MIC in the presence of the compound: <0.0975 µg/mL
[2]; strain 6083655967, MCR(+), compound at 2 μg
  Colistin MIC in the presence of the compound: 1.56 µg/mL
[2]; strain 6083655967, MCR(+), compound at 3 μg
  Colistin MIC in the presence of the compound: 0.39 µg/mL
[2]; strain 6083655967, MCR(+), compound at 5 μg (Table 2a: 5 ug/ml)
  Colistin MIC in the presence of the compound: 0.195 µg/mL
[2]; strain 6083655967, MCR(+), compound at 10 μg (Table 2a: 10 ug/ml)
  Colistin MIC in the presence of the compound: <0.098 µg/mL
[2]; strain 6083655967, MCR(+), compound at 10 μg (Table 2a: 10 ug/ml), listed as LC 100
  Colistin MIC in the presence of the compound: <0.0975 µg/mL
[2]; strain 6103645107, MCR(+), compound at 2 μg
  Colistin MIC in the presence of the compound: 1.56 µg/mL
[2]; strain 6103645107, MCR(+), compound at 3 μg
  Colistin MIC in the presence of the compound: 0.78 µg/mL
[2]; strain 6103645107, MCR(+), compound at 5 μg (Table 2a: 5 ug/ml)
  Colistin MIC in the presence of the compound: 0.195 µg/mL
[2]; strain 6103645107, MCR(+), compound at 10 μg (Table 2a: 10 ug/ml)
  Colistin MIC in the presence of the compound: <0.098 µg/mL
[2]; strain 6103645107, MCR(+), compound at 10 μg (Table 2a: 10 ug/ml), listed as LC 100
  Colistin MIC in the presence of the compound: <0.0975 µg/mL
[2]; strain 6123520276, MCR(+), compound at 2 μg
  Colistin MIC in the presence of the compound: 1.56 µg/mL
[2]; strain 6123520276, MCR(+), compound at 3 μg
  Colistin MIC in the presence of the compound: 0.78 µg/mL
[2]; strain 6123520276, MCR(+), compound at 5 μg (Table 2a: 5 ug/ml)
  Colistin MIC in the presence of the compound: 0.195 µg/mL
[2]; strain 6123520276, MCR(+), compound at 10 μg (Table 2a: 10 ug/ml)
  Colistin MIC in the presence of the compound: <0.098 µg/mL
[2]; strain 6123520276, MCR(+), compound at 10 μg (Table 2a: 10 ug/ml), listed as LC 100
  Colistin MIC in the presence of the compound: <0.0975 µg/mL
[2]; strain 7013177695, MCR(+), compound at 2 μg
  Colistin MIC in the presence of the compound: 1.56 µg/mL
[2]; strain 7013177695, MCR(+), compound at 3 μg
  Colistin MIC in the presence of the compound: 0.39 µg/mL
[2]; strain 7013177695, MCR(+), compound at 5 μg (Table 2a: 5 ug/ml)
  Colistin MIC in the presence of the compound: 0.195 µg/mL
[2]; strain 7013177695, MCR(+), compound at 10 μg (Table 2a: 10 ug/ml)
  Colistin MIC in the presence of the compound: <0.098 µg/mL
[2]; strain 7013177695, MCR(+), compound at 10 μg (Table 2a: 10 ug/ml), listed as LC 100
  Colistin MIC in the presence of the compound: <0.0975 µg/mL
[2]; strain 7023436560, MCR(+), compound at 2 μg
  Colistin MIC in the presence of the compound: 1.56 µg/mL
[2]; strain 7023436560, MCR(+), compound at 3 μg
  Colistin MIC in the presence of the compound: 0.39 µg/mL
[2]; strain 7023436560, MCR(+), compound at 5 μg (Table 2a: 5 ug/ml)
  Colistin MIC in the presence of the compound: 0.195 µg/mL
[2]; strain 7023436560, MCR(+), compound at 10 μg (Table 2a: 10 ug/ml)
  Colistin MIC in the presence of the compound: <0.098 µg/mL
